Laboratory results reported in ChEMBL document CHEMBL1201862, “PubChem BioAssay data set” (2004).
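All cell lines were grown in 96-well plates and treated with compound for 48 hours. GI50 is the concentration that inhibits growth by half.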 The source made the active and inactive calls. Rule as the data show it: active = GI50 up to about 1.1 µM and inactive = higher.

Assays:
Experiment in all cases: DTP human tumour cell line panel, 48 h
786-0 = tested on: 786-0
A549 = tested on: A549
ACHN = tested on: ACHN
BT-549 = tested on: BT-549
CAKI-1 = tested on: CAKI-1
CCRF-CEM = tested on: CCRF-CEM
COLO 205 = tested on: COLO 205
DU-145 = tested on: DU-145
HCC 2998 = tested on: HCC 2998
HCT-116 = tested on: HCT-116
HCT-15 = tested on: HCT-15
HL-60 = tested on: HL-60
HOP-62 = tested on: HOP-62
HOP-92 = tested on: HOP-92
HT-29 = tested on: HT-29
Hs-578T = tested on: Hs-578T
IGROV-1 = tested on: IGROV-1
K562 = tested on: K562
KM12 = tested on: KM12
LOX IMVI = tested on: LOX IMVI
M14 = tested on: M14
MCF7 = tested on: MCF7
MDA-MB-231 = tested on: MDA-MB-231
MDA-MB-435 = tested on: MDA-MB-435
MDA-N = tested on: MDA-N
MOLT-4 = tested on: MOLT-4
Malme-3M = tested on: Malme-3M
NCI-H23 = tested on: NCI-H23
NCI-H460 = tested on: NCI-H460
NCI/ADR-RES = tested on: NCI/ADR-RES
OVCAR-3 = tested on: OVCAR-3
OVCAR-4 = tested on: OVCAR-4
OVCAR-5 = tested on: OVCAR-5
PC-3 = tested on: PC-3
RPMI-8226 = tested on: RPMI-8226
RXF 393 = tested on: RXF 393
SF-268 = tested on: SF-268
SF-295 = tested on: SF-295
SF-539 = tested on: SF-539
SK-MEL-28 = tested on: SK-MEL-28
SK-MEL-2 = tested on: SK-MEL-2
SK-MEL-5 = tested on: SK-MEL-5
SK-OV-3 = tested on: SK-OV-3
SN12C = tested on: SN12C
SNB-19 = tested on: SNB-19
SNB-75 = tested on: SNB-75
SR = tested on: SR
SW-620 = tested on: SW-620
T47D = tested on: T47D
TK-10 = tested on: TK-10
U-251 = tested on: U-251
UACC-257 = tested on: UACC-257
UACC-62 = tested on: UACC-62
UO-31 = tested on: UO-31
A498 = tested on: A498
EKVX = tested on: EKVX
NCI-H226 = tested on: NCI-H226
NCI-H522 = tested on: NCI-H522
OVCAR-8 = tested on: OVCAR-8

In the case of COC1OC(COC(=O)NCCCCC(=O)C(F)(F)F)C(O)C(O)C1O (configuration not stated), the GI50 (786-0) is reported as > 100 µM (inactive), the GI50 (A549) is reported as > 100 µM (inactive) and the GI50 (ACHN) is reported as > 100 µM (inactive). The GI50 (BT-549) was > 100 µM (inactive), the GI50 (CAKI-1) was > 100 µM (inactive) and the GI50 (CCRF-CEM) was > 100 µM (inactive). For the same compound, the GI50 (COLO 205) was > 100 µM (inactive), the GI50 (DU-145) was > 100 µM (inactive) and the GI50 (HCC 2998) was > 100 µM (inactive). The GI50 (HCT-116) was > 100 µM (inactive), the GI50 (HCT-15) was > 100 µM and the GI50 (HL-60) was > 100 µM (inactive). The GI50 (HOP-62) was > 100 µM (inactive), the GI50 (HOP-92) was > 100 µM (inactive) and the GI50 (HT-29) was > 100 µM (inactive). The GI50 (Hs-578T) was > 100 µM (inactive), the GI50 (IGROV-1) was > 100 µM (inactive) and the GI50 (K562) was > 100 µM (inactive). For the same compound, the GI50 (KM12) was > 100 µM (inactive), the GI50 (LOX IMVI) was > 100 µM (inactive) and the GI50 (M14) was > 100 µM (inactive). The GI50 (MCF7) was > 100 µM (inactive), the GI50 (MDA-MB-231) was > 100 µM (inactive) and the GI50 (MDA-MB-435) was > 100 µM (inactive). For the same compound, the GI50 (MDA-N) was > 100 µM (inactive), the GI50 (MOLT-4) was > 100 µM (inactive) and the GI50 (Malme-3M) was > 100 µM (inactive). For the same compound, the GI50 (NCI-H23) was > 100 µM (inactive), the GI50 (NCI-H460) was > 100 µM (inactive) and the GI50 (NCI/ADR-RES) was > 100 µM (inactive). For the same compound, the GI50 (OVCAR-3) was > 100 µM (inactive), the GI50 (OVCAR-4) was > 100 µM (inactive) and the GI50 (OVCAR-5) was > 100 µM (inactive). The GI50 (PC-3) was > 100 µM (inactive), the GI50 (RPMI-8226) was > 100 µM (inactive) and the GI50 (RXF 393) was > 100 µM (inactive). The GI50 (SF-268) was > 100 µM (inactive), the GI50 (SF-295) was > 100 µM (inactive) and the GI50 (SF-539) was > 100 µM (inactive). The GI50 (SK-MEL-28) was > 100 µM (inactive), the GI50 (SK-MEL-2) was > 100 µM (inactive) and the GI50 (SK-MEL-5) was > 100 µM (inactive). For the same compound, the GI50 (SK-OV-3) was > 100 µM (inactive), the GI50 (SN12C) was > 100 µM (inactive) and the GI50 (SNB-19) was > 100 µM (inactive). For the same compound, the GI50 (SNB-75) was > 100 µM (inactive), the GI50 (SR) was > 100 µM (inactive) and the GI50 (SW-620) was > 100 µM (inactive). For the same compound, the GI50 (T47D) was > 100 µM (inactive), the GI50 (TK-10) was > 100 µM (inactive) and the GI50 (U-251) was > 100 µM (inactive). The GI50 (UACC-257) was > 100 µM (inactive), the GI50 (UACC-62) was > 100 µM (inactive) and the GI50 (UO-31) was > 100 µM (inactive).

In the case of CN(C)c1ccc(/C=C(\NC(=O)c2ccccc2)c2nn(C)c(=O)o2)cc1, the GI50 (786-0) is reported as 41.5 µM (inactive), the GI50 (A498) is reported as > 100 µM (inactive) and the GI50 (A549) is reported as > 100 µM (inactive). For the same compound, the GI50 (ACHN) was > 100 µM (inactive), the GI50 (BT-549) was > 100 µM (inactive) and the GI50 (CAKI-1) was > 100 µM (inactive). For the same compound, the GI50 (CCRF-CEM) was 34.7 µM (inactive), the GI50 (COLO 205) was > 100 µM (inactive) and the GI50 (DU-145) was > 100 µM (inactive). The GI50 (EKVX) was > 100 µM (inactive), the GI50 (HCC 2998) was > 100 µM (inactive) and the GI50 (HCT-116) was > 100 µM (inactive). The GI50 (HCT-15) was > 100 µM, the GI50 (HL-60) was 34.6 µM (inactive) and the GI50 (HOP-62) was 18.1 µM (inactive). For the same compound, the GI50 (HOP-92) was > 100 µM (inactive), the GI50 (HT-29) was 90.8 µM (inactive) and the GI50 (Hs-578T) was 62.1 µM (inactive). The GI50 (IGROV-1) was 58.6 µM (inactive), the GI50 (K562) was > 100 µM (inactive) and the GI50 (KM12) was 37.6 µM (inactive). The GI50 (LOX IMVI) was 60.1 µM (inactive), the GI50 (M14) was 46 µM (inactive) and the GI50 (MCF7) was > 100 µM (inactive). The GI50 (MDA-MB-231) was > 100 µM (inactive), the GI50 (MDA-MB-435) was 69 µM (inactive) and the GI50 (MDA-N) was 53.6 µM (inactive). For the same compound, the GI50 (MOLT-4) was 35.3 µM (inactive), the GI50 (Malme-3M) was 78.2 µM (inactive) and the GI50 (NCI-H226) was 23.4 µM (inactive). For the same compound, the GI50 (NCI-H23) was > 100 µM (inactive), the GI50 (NCI-H460) was 44.4 µM (inactive) and the GI50 (NCI-H522) was 17.6 µM (inactive). The GI50 (NCI/ADR-RES) was 21.7 µM (inactive), the GI50 (OVCAR-3) was 43.9 µM (inactive) and the GI50 (OVCAR-4) was 28.9 µM (inactive). The GI50 (OVCAR-5) was > 100 µM (inactive), the GI50 (OVCAR-8) was 26.7 µM (inactive) and the GI50 (PC-3) was > 100 µM (inactive). For the same compound, the GI50 (RPMI-8226) was 32 µM (inactive), the GI50 (RXF 393) was > 100 µM (inactive) and the GI50 (SF-268) was 44.1 µM (inactive). For the same compound, the GI50 (SF-295) was 47.5 µM (inactive), the GI50 (SF-539) was 33.5 µM (inactive) and the GI50 (SK-MEL-28) was > 100 µM (inactive). For the same compound, the GI50 (SK-MEL-2) was 52.5 µM (inactive), the GI50 (SK-MEL-5) was 26.3 µM (inactive) and the GI50 (SK-OV-3) was > 100 µM (inactive). For the same compound, the GI50 (SN12C) was > 100 µM (inactive), the GI50 (SNB-19) was 28.1 µM (inactive) and the GI50 (SNB-75) was 16.9 µM (inactive). For the same compound, the GI50 (SW-620) was 52 µM (inactive), the GI50 (T47D) was > 100 µM (inactive) and the GI50 (TK-10) was > 100 µM (inactive). For the same compound, the GI50 (U-251) was 24 µM (inactive), the GI50 (UACC-257) was 33 µM (inactive) and the GI50 (UACC-62) was > 100 µM (inactive). The GI50 (UO-31) was > 100 µM (inactive).
